This is an account of results in patent US9000190B2, “Amide compound or salt thereof, biofilm inhibitor, biofilm remover and disinfectant containing the same” (The University of Tokyo, priority 2006, dated 2015).

SMILES strings stand for the structures.

The subject of assay [1] is Pseudomonas aeruginosa (gfp expression PAO1-strain). Description: Evaluation test for biofilm formation inhibition effect against Pseudomonas aeruginosa (flow cell system). It counts as cell-based. Conditions: flow 200 μL per minute, observed after 1, 48, 60, 72, 84 hours. Here is the method: With the flow cell system shown in FIG. 1, an inhibitory effect against biofilm formation by Pseudomonas aeruginosa was evaluated for each of the amide compounds produced in Production Examples 1, 3, 5, 6 and 7 (Compounds 1a-1, 1b-1, 1c-1, 1c-2, 1d-1), and for each of Comparative Compounds (Comparative Example) 1 to 3 denoted by the following formulas.
A culture medium bottle (1), a peristaltic pump (2), a glass cell (4) and a waste fluid bottle (5) are connected via a silicon tube (6) so that a culture medium (9) is supplied to the glass cell (4) from the culture medium bottle (1) using the peristaltic pump (2). The system includes an air removal section (3) between the peristaltic pump (2) and a turncock (7a), for removing the entrained air. All instruments in the flow cell system are sterilized using gamma-rays or an autoclave.
As specifically described later, the inhibitory effect against biofilm formation of each of the amide compounds is examined in the following manner. Bacteria are cultured in a glass cell (4) to grow a biofilm on the inner wall of the cell, and a test liquid containing one of the amide compounds is applied to the biofilm. Then the state of the biofilm is observed to evaluate the inhibitory effect against biofilm formation of the compound using a fluorescence confocal microscope (Leica TCS SP2: product of Leica).
The bacteria was prepared by inserting a pTdk-LVAgfp plasmid into a Pseudomonas aeruginosa PAO1-strain using the electroportion method so that the Pseudomonas aeruginosa PAO1-strain is transformed to express Green Fluorescent Protein (hereinafter referred to as “gfp expression PAO1-strain”) (see Teresa R. et al., Applied and Environmental Microbiology, April 2001, p. 1865-1873).
A 30 mM glucose-containing FAB culture medium was used for preincubation, and a 0.3 mM glucose-containing FAB culture medium was used for main cultivation.
The glucose-containing FAB culture medium was prepared by adding 200 μg/mL of carbenicillin to an aqueous solution containing 30 mM glucose or 0.3 mM glucose, 15 mM ammonium sulfate, 33.7 mM disodium hydrogenphosphate dihydrate, 22.1 mM potassium dihydrogen phosphate, 51.7 mM sodium chloride, 0.47 mM magnesium chloride, 0.08 mM calcium chloride and the following 0.1% trace metal solution.
An aqueous solution containing 1.16 mM calcium sulfate dihydrate, 0.72 mM iron sulfate heptahydrate, 0.08 mM manganous sulfate monohydrate, 0.08 mM copper sulfate pentahydrate, 0.07 mM zinc sulfate heptahydrate, 0.04 mM cobalt sulfate heptahydrate, 0.04 mM […], and 0.08 mM boric acid.
A gfp expression PAO1-strain was inoculated in a 30 mM glucose-containing FAB culture medium, and was subjected to shake culture at 37° C. in an isothermal tank overnight. The obtained overnight culture liquid was diluted by a 30 mM glucose-containing FAB culture medium to OD590=0.1.
The test liquid was prepared by dissolving 100-250 μM of each of the Compounds 1a-1, 1b-1, 1c-1, 1c-2, or 1d-1 according to Production Examples 1, 3 and 5 to 7 and 100-250 μM of Comparative Compounds 1 to 3 as comparative examples in dimethyl sulfoxide (DMSO), and supplying the resulting DMSO solutions to a 0.3 mM glucose-containing FAB culture medium so that the concentration of each compound becomes 0.1%(v/v).
(§1) A DMSO not containing the compound was used as a control test liquid.
The flow cell system was filled with hydrous ethanol of 70 volume %, and was allowed to stand for at least 12 hours to sterilize the system. Then, air having been filtrated by a membrane filter (8a) was supplied into the flow cell system using the peristaltic pump (2) to dry the system. Thereafter, the system was filled with a 0.3 mM glucose-containing FAB culture medium. 500 μL of a bacterial suspension was injected into the glass cell (4) from the upper surface, and the glass cell was sealed by turning off the three-way turncock (7a,7b). The cell as such was allowed to stand for 1 hour at room temperature. […]

In the next assay the test system is E. coli ATCC 25922. The conditions noted are these: Publicly-known data; cited from earlier work.
The test system of the next assay is P. aeruginosa ATCC 27853. The conditions noted are these: Publicly-known data; cited from earlier work.
Another assay concerns S. aureus ATCC 29213. The conditions noted are these: Publicly-known data; cited from earlier work.
Assay [2] concerns Porphyromonas gingivalis 381-strain. Description: Evaluation test for biofilm formation inhibition effect against periodontitis pathogenic bacteria (flow cell, HA disks, turbidity). The assay is classed as cell-based. Conditions: for Mean OD Value / inhibition of biofilm formation caused by periodontitis pathogenic bacteria (conclusion in words): 100 μM; for Mean OD Value: turbidity of suspended biofilm at 550 nm; for inhibition of biofilm formation caused by periodontitis pathogenic bacteria (conclusion in words): 14 days. As for the experimental part: As with Experiment Example 1, using the flow cell system of FIG. 1, an inhibitory effect against biofilm formation by periodontitis pathogenic bacteria was evaluated for each of the amide compounds produced in Production Examples 1, 3, 5, and 6 (Compounds 1a-1, 1b-1, 1c-1, 1c-2).
Periodontitis pathogenic bacteria Porphyromonas gingivalis 381-strain (clinical strain) was used.
A GAM culture medium containing hemin 5 μg/L and menadione 1 μg/L was used.
The 381-strain was inoculated in the GAM culture medium, and cultivated until stationary phase (OD550=1.8). Then the culture medium was diluted 20-fold by a fresh GAM culture medium containing the above-mentioned substances.
The test liquid was prepared by dissolving 100 μM of each of the Compounds 1a-1, 1b-1, 1c-1, or 1c-2 according to Production Examples 1, 3, 5 and 6 and 100 μM of Comparative Compounds 1 and 2 as comparative examples in dimethyl sulfoxide (DMSO), and supplying the resulting DMSO solutions to the above-mentioned bacterial suspensions so that the concentration of each compound becomes 0.1%(v/v).
as §1
The glass cell (4) of the flow cell system (see FIG. 1) was replaced with a stainless cell (3×7×120 mm), and 10 hydroxyapatite (HA) disks (6 mm in diameter, 1 mm in thickness) were placed in the cell. The HA disks had been subjected to salivary treatment overnight. Each of the test liquids and control test liquids was circulated in the system at a flow rate of 8 mL/min for 14 days. Note that the test liquids and the control test liquids were replaced with fresh liquids every two days.
After the cultivation, the HA disks were dipped in 300 μL of sterile distilled water, and treated by supersonic wave for 30 minutes at 4° C. The biofilms formed in the HA disks were peeled off and suspended in distilled water. Then, 100 μL of the suspension liquid was measured for the turbidity with an absorptiometer (C07500 colorimeter, product of Funakoshi) (measurement wavelength=550 nm).
A mean OD was found based on the resulting OD values, excluding the minimum and maximum values. Also, a mean value of the turbidities for the Control Test Liquids was found in the same manner as the control mean OD value. A biofilm formation inhibition rate (Inhibition Rate) was found by the following formula. Biofilm Formation Inhibition Rate (%)={(Mean OD Value)/(Mean Comparison OD Value)}×100

For assay [3], the system named is Pseudomonas aeruginosa (gfp expression PAO1-strain). Description: Evaluation test for biofilm removal effect with respect to Pseudomonas aeruginosa (flow cell system). It counts as cell-based. The conditions noted are these: test liquid 100 μM; for state of biofilm removal (disappearance of deposited biofilm, fluorescence confocal microscope): observed after 3, 4, 5, 6, 7 and 10 days; for time course of biofilm during removal test: up to 10 days. Here is the method: With the flow cell system of FIG. 1, a removal effect against biofilms formed by Pseudomonas aeruginosa was evaluated for each of the amide compounds produced in Production Examples 1, 3, 5, and 6 (Compounds 1a-1, 1b-1, 1c-1, 1c-2), and for Comparative Compounds 1 to 3 as comparative examples.
The evaluation for biofilm removal effect was performed as follows. After cultivation of bacterias in the glass cell (4) of the flow cell system to grow a biofilm in the inner cell wall, a test liquid containing one of the amide compounds was applied to the biofilm.
As with Experiment Example 1, a gfp expression PAO1-strain was used.
At for the culture medium, the glucose-containing FAB culture medium, trace metal solution, and bacterial suspension as those of Experiment Example 1 were used.
The test liquid was prepared by dissolving 100 μM of each of the Compounds 1a-1, 1b-1, 1c-1 and 1c-2 according to Production Examples 1, 3, 5 and 6 and 100 μM of Comparative Compounds 1 to 3 as comparative examples denoted by the following formula in dimethyl sulfoxide (DMSO), and supplying the resulting DMSO solutions to a 0.3 mM glucose-containing FAB culture medium so that the concentration of each compound becomes 0.1%(v/v).
as §1
The flow cell system was filled with hydrous ethanol (70 volume %), and was allowed to stand for at least 12 hours to sterilize the system. Then, air having been filtrated by a membrane filter (8a) was supplied into the flow cell system using the peristaltic pump (2) to dry the system. Thereafter, the system was filled with a 0.3 mM glucose-containing FAB culture medium. 500 μL of the bacterial suspension was injected into the glass cell (4) from the upper surface, and the glass cell was sealed by turning off the three-way turncock (7a,7b). The cell as such was allowed to stand for an hour at room temperature.
After the static culture, two of the three-way turncocks (7a,7b) were turned on, so as to supply each test liquid and control test liquid at a flow rate of 200 μL per minute. With a fluorescence confocal microscope, the process of biofilm formation (deposition) by the Pseudomonas aeruginosa (gfp expression PAO1-strain) adhered to the inner wall of the glass cell was observed three-dimensionally from above to observe changes over time (after 3 days, 4 days, 5 days, 6 days, 7 days, and 10 days). Note that the test liquid and the control test liquid were replaced with fresh liquids every 36 hours.

In the case of `CCCC(=O)NN1CCCCC1` [Comparative Compound 3, reference compound], the “state of biofilm formation (fluorescence confocal microscope) compared with control test liquid” value (shortened to “state … compared with control test liquid”) in assay [1] (test liquid 100 μM) was “the huge, thick biofilm was observed as in the control test”.

As to `CC(C)(O/N=C(\C(=O)N[C@@H]1C(=O)N2C(C(=O)[O-])=C(C[n+]3ccccc3)CS[C@H]12)c1csc(N)n1)C(=O)O` [CAZ, Ceftazidime], the “MIC (μg/mL) from M100-S16” value in the assay on E. coli ATCC 25922 was 0.06 to 0.5 µg/mL; in the assay on P. aeruginosa ATCC 27853 it was 1 to 4 µg/mL; in the assay on S. aureus ATCC 29213 it was 4 to 16 µg/mL.

Take `CCCCCCCCCC(=O)CC(=O)Nc1ccccc1O` [Comparative Compound 1, reference compound]: in assay [1] (test liquid 100 μM), the “state … compared with control test liquid” value is “the huge, thick biofilm was observed as in the control test”. The “Mean OD Value” in assay [2] (HA disks, circulated 14 days) amounted to 0.629.

For `CCCCCCCCCC(O)CC(=O)NN1CCCC1` (stereo not shown) [Compound 1c-2, N-(pyrrolidin-1-yl)-3-hydroxy dodecanoyl amide], in assay [3], the “state of biofilm removal (disappearance of deposited biofilm, fluorescence confocal microscope)” value (“state of biofilm removal” below) was “the gradual disappearance of the deposited biofilm with time was observed”; the “time course of biofilm during removal test” value is “the biofilm was first reduced and then increased again after a six-day cultivation, before it reduced again until it disappeared”. Further, the “state … compared with control test liquid” value in assay [1] (test liquid 100 μM) is given as “such biofilm formation was not observed”. For the same molecule, the “inhibition of biofilm formation caused by periodontitis pathogenic bacteria (conclusion in words)” value (from here on “inhibition of biofilm formation caused”) in assay [2] was “capable of inhibiting biofilm formation”.

Consider `CCCCCCCCCCCC(=O)NC1CCNCC1` [Compound 1b-1, N-(piperidine-4-yl) dodecanoyl amide], for which the “state of biofilm removal” value in assay [3] is on record as “the gradual disappearance of the deposited biofilm with time was observed”. Further, the “state … compared with control test liquid” value in assay [1] (test liquid 250 μM) is listed as “such biofilm formation was not observed”. Moreover, the “inhibition of biofilm formation caused” value in assay [2] is recorded as “capable of inhibiting biofilm formation”.

Regarding `CCCCCCCCCCCC(=O)NN1CCCC1` [Compound 1c-1, N-(pyrrolidin-1-yl) dodecanoyl amide], in assay [3], the “state of biofilm removal” value is listed as “the gradual disappearance of the deposited biofilm with time was observed”; the “time course of biofilm during removal test” value was “the biofilm was first reduced and then increased again after a six-day cultivation, before it reduced again until it disappeared”. In assay [1] (test liquid 100 μM), the “state … compared with control test liquid” value is given as “such biofilm formation was not observed”. For the same molecule, in assay [2], the “inhibition of biofilm formation caused” value was “capable of inhibiting biofilm formation”.

Broadly, the inhibition is the change of the read-out against control, counted positive when it falls. On to `CCCC(=O)NN1CCCC1` [Comparative Compound 2, reference compound], for which, in assay [1] (test liquid 100 μM), the “state … compared with control test liquid” value is recorded as “the huge, thick biofilm was observed as in the control test”. The “Mean OD Value” in assay [2] (HA disks, circulated 14 days) was found to be 0.719. The inhibition at 100 µM in assay [2] (Porphyromonas gingivalis, 381STRAIN, 336 h, HA disks, circulated 14 days, relative to control test liquid (DMSO), read-out: Biofilm Formation Inhibition Rate (%)) is -49%.

Take `CCCCCCCCCCCC(=O)NN1CCCCC1` [Compound 1d-1, N-(piperidine-1-yl) dodecanoyl amide]: the “state … compared with control test liquid” value in assay [1] (test liquid 100 μM) is reported as “such biofilm formation was not observed”.

As to `CCCCCCCCCCCC(=O)NC1CCNC1` (stereo not shown) [Compound 1a-1, N-(pyrrolidin-3-yl) dodecanoyl amide], the “state of biofilm removal” value in assay [3] is given as “the gradual disappearance of the deposited biofilm with time was observed”. The “state … compared with control test liquid” value in assay [1] (test liquid 250 μM) was “such biofilm formation was not observed”. Further, the “inhibition of biofilm formation caused” value in assay [2] is recorded as “capable of inhibiting biofilm formation”.

With `CC[C@H]1OC(=O)[C@H](C)[C@@H](O[C@H]2C[C@@](C)(OC)[C@@H](O)[C@H](C)O2)[C@H](C)[C@@H](O[C@@H]2O[C@H](C)C[C@H](N(C)C)[C@H]2O)[C@](C)(O)C[C@@H](C)CN(C)[C@H](C)[C@@H](O)[C@]1(C)O` [AZM, Azithromycin], the “MIC (μg/mL) from M100-S16” value in the assay with S. aureus ATCC 29213 is 0.5 to 2 µg/mL.
